The source made the active and inactive calls. The rule behind the calls is not given here.
Experiments:
Toll-like receptor 4 = molecular target: T1, Toll-like receptor 4 (Mus musculus, UniProt Q9QUK6); assay: Antagonist activity at TLR4 in mouse BV-2 cells assessed as inhibition of LPS-induced NO overproduction incubated for 24 hrs by 2,3-diaminonaphthalene reagent based microplate reader analysis; assay type: cell-based
T1 sequence (Q9QUK6 whole entry): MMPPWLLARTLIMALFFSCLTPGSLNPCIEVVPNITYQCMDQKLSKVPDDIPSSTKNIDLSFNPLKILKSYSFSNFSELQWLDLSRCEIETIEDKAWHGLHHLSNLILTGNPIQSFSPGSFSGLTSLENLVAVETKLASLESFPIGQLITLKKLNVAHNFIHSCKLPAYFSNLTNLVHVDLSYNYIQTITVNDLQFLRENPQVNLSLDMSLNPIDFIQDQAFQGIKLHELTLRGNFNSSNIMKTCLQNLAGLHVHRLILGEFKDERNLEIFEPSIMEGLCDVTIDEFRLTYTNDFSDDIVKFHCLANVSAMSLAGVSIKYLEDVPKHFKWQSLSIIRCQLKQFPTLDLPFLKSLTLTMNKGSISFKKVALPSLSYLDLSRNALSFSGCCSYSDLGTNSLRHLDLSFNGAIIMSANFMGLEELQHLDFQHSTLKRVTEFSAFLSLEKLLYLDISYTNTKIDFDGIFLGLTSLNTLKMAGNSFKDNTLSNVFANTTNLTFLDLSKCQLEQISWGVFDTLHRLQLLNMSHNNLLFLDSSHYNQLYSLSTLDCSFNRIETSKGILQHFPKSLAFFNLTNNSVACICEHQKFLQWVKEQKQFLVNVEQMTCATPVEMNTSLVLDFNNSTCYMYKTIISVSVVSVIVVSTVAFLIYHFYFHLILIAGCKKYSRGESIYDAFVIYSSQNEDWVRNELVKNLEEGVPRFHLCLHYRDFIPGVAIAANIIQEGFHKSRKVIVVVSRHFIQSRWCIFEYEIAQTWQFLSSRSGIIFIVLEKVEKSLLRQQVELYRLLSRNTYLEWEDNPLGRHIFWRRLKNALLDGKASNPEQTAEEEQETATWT

[1] = molecular target: T2, Toll-like receptor 4 (Mus musculus) (UniProt Q9QUK6); assay: Antagonist activity at TLR4 signaling pathway in mouse BV-2 cells assessed as downregulation of LPS-induced JNK phosphorylation at 5 uM incubated for 1 hr by Western blot analysis; assay type: cell-based
T2 sequence (whole entry): T1 sequence (Q9QUK6 whole entry)

[2] = molecular target: T2, Toll-like receptor 4 (Mus musculus); assay: Antagonist activity at TLR4 signaling pathway in mouse BV-2 cells assessed as downregulation of LPS-induced ERK phosphorylation at 5 uM incubated for 1 hr by Western blot analysis; assay type: cell-based
[3] = molecular target: T2, Toll-like receptor 4 (Mus musculus); assay: Antagonist activity at TLR4 signaling pathway in mouse BV-2 cells assessed as downregulation of LPS-induced IKKbeta phosphorylation at 5 uM incubated for 1 hr by Western blot analysis; assay type: cell-based
[4] = molecular target: T2, Toll-like receptor 4 (Mus musculus); assay: Antagonist activity at TLR4 in mouse BV-2 cells assessed as inhibition of LPS-induced TNF-alpha production at 0.01 to 100 uM by ELISA; assay type: cell-based; settings: dose 0.01-100 µM
[5] = molecular target: T2, Toll-like receptor 4 (Mus musculus); assay: Antagonist activity at TLR4 signaling pathway in mouse BV-2 cells assessed as downregulation of LPS-induced IRF-3 phosphorylation at 5 uM incubated for 1 hr by Western blot analysis; assay type: cell-based
[6] = molecular target: T2, Toll-like receptor 4 (Mus musculus); assay: Antagonist activity at TLR4 signaling pathway in mouse BV-2 cells assessed as inhibition of LPS-induced MyD88 recruitment at 5 uM incubated for 1 hr by co-immunoprecipitation based Western blot analysis; assay type: cell-based
[7] = molecular target: T2, Toll-like receptor 4 (Mus musculus); assay: Antagonist activity at TLR4 signaling pathway in mouse BV-2 cells assessed as downregulation of LPS-induced IKKalpha phosphorylation at 5 uM incubated for 1 hr by Western blot analysis; assay type: cell-based
[8] = molecular target: T2, Toll-like receptor 4 (Mus musculus); assay: Antagonist activity at TLR4 in mouse BV-2 cells assessed as inhibition of LPS-induced NF-kappaB activation at 4 uM incubated for 24 hrs by dual-glo luciferase assay; assay type: cell-based
[9] = molecular target: T2, Toll-like receptor 4 (Mus musculus); assay: Antagonist activity at TLR4 signaling pathway in mouse BV-2 cells assessed as inhibition of LPS-induced TRIF recruitment at 5 uM incubated for 1 hr by co-immunoprecipitation based Western blot analysis; assay type: cell-based
Mus musculus [10] = assay: Inhibition of chronic morphine-induced microglia activation in Balb/c mouse assessed as reduction in TNF-alpha mRNA expression in brain medial prefrontal cortex region at 0.2 mg/kg,ip administrated for 6 consecutive days by qPCR analysis; assay type: functional, organism-based
Mus musculus [11] = assay: Inhibition of morphine-induced addiction behavior in Balb/c mouse assessed reduction in CPP score at 0.2 mg/kg,ip administrated for 6 consecutive days by conditioned place preference assay; assay type: functional, organism-based
Mus musculus [12] = assay: Inhibition of chronic morphine-induced microglia activation in Balb/c mouse assessed as reduction in Iba1 expression in brain ventral tegmental area region at 0.2 mg/kg,ip administrated for 6 consecutive days by immunofluorescence staining based analysis; assay type: functional, organism-based
Mus musculus [13] = assay: Inhibition of chronic morphine-induced microglia activation in Balb/c mouse assessed as reduction in Iba1 expression in nucleus accumbens region at 0.2 mg/kg,ip administrated for 6 consecutive days by immunofluorescence staining based analysis; assay type: functional, organism-based
Mus musculus [14] = assay: Inhibition of chronic morphine-induced microglia activation in Balb/c mouse assessed as reduction in Iba1 expression in brain medial prefrontal cortex region at 0.2 mg/kg,ip administrated for 6 consecutive days by immunofluorescence staining based analysis; assay type: functional, organism-based
Mus musculus [15] = assay: Inhibition of chronic morphine-induced microglia activation in Balb/c mouse assessed as reduction in TNF-alpha mRNA expression in brain nucleus accumbens region at 0.2 mg/kg,ip administrated for 6 consecutive days by qPCR analysis; assay type: functional, organism-based
Mus musculus [16] = assay: Inhibition of morphine-induced addiction behavior in Balb/c mouse assessed as decrease in locomotor activity at 0.2 mg/kg,ip administrated on day 4 to 10 by open-field test; assay type: functional, organism-based; settings: time 7.0 day
Mus musculus [17] = assay: Inhibition of chronic morphine-induced microglia activation in Balb/c mouse assessed as reduction in microglia cell number in brain nucleus accumbens region at 0.2 mg/kg,ip administrated for 6 consecutive days by immunofluorescence staining based analysis; assay type: functional, organism-based
Mus musculus [18] = assay: Inhibition of chronic morphine-induced microglia activation in Balb/c mouse assessed as reduction in TNF-alpha mRNA expression in brain ventral tegmental area region at 0.2 mg/kg,ip administrated for 6 consecutive days by qPCR analysis; assay type: functional, organism-based
Mus musculus [19] = assay: Inhibition of chronic morphine-induced microglia activation in Balb/c mouse assessed as reduction in microglia cell number in brain medial prefrontal cortex region at 0.2 mg/kg,ip administrated for 6 consecutive days by immunofluorescence staining based analysis; assay type: functional, organism-based
Mus musculus [20] = assay: Inhibition of chronic morphine-induced microglia activation in Balb/c mouse assessed as reduction in microglia cell number in brain ventral tegmental area region at 0.2 mg/kg,ip administrated for 6 consecutive days by immunofluorescence staining based analysis; assay type: functional, organism-based

`COC1=C[C@@H]2[C@@H]3Cc4ccc(OC)c(O)c4[C@]2(CCN3C)CC1=O` [SINOMENINE] gave an IC50 (Toll-like receptor 4) of over 200 µM.
In the case of `COc1ccc2c3c1O[C@@H]1C(=O)CC[C@]4(OC(C)=O)[C@H](C2)N(C#N)CC[C@@]314`, the IC50 (Toll-like receptor 4) is reported as 67.8 µM.
For `COC1=CC[C@@H]2[C@@H]3Cc4ccc(OC)c5c4[C@]2(CCN3C)[C@@H]1O5`, the IC50 (Toll-like receptor 4) was over 200 µM.
With `COc1ccc2c3c1O[C@@H]1C(=O)CC[C@]4(OC(C)=O)[C@H](C2)N(C)CC[C@@]314` the IC50 (Toll-like receptor 4) was over 200 µM.
`COc1ccc2c3c1O[C@@H]1C(=O)C=C[C@@H]4[C@H](C2)N(C)CC[C@@]314` gave an IC50 (Toll-like receptor 4) of 6.9 µM.
In the case of `COc1ccc2c3c1O[C@@H]1C(OC)(OC)C(Br)C[C@@H]4[C@H](C2)N(C)CC[C@]341` (some centres not stated), the IC50 (Toll-like receptor 4) is reported as over 200 µM.
`COc1ccc2c3c1O[C@@H]1C(OC)(OC)CC[C@@H]4[C@H](C2)N(C)CC[C@]341` gave an IC50 (Toll-like receptor 4) of over 200 µM.
In the case of `COc1ccc2c3c1O[C@@H]1C(=O)CC[C@]4(O)[C@H](C2)N(C)CC[C@@]314` (single isomer, unassigned), the Activity [1] is reported as “inactive”, the Activity [2] is reported as “inactive” and the Activity [3] is reported as “inactive”. The Activity [4] was “inactive”, the Activity [5] was “inactive” and the IC50 (Toll-like receptor 4) was over 200 µM. The Activity [6] was “inactive”, the Activity [7] was “inactive” and the Activity [8] was “inactive”. The Activity [9] was “inactive”.
Work on `COc1ccc2c3c1O[C@@H]1C(=O)CC[C@]4(O)[C@H](C2)NCC[C@@]314` yielded an IC50 (Toll-like receptor 4) of over 200 µM.
With `O=C1CC[C@]2(O)[C@@H]3Cc4ccc(O)c5c4[C@]2(CCN3CC2CC2)[C@@H]1O5` the inhibition (Mus musculus [10]) was “inactive”, the inhibition (Mus musculus [11]) was “inactive” and the inhibition (Mus musculus [12]) was “inactive”. For the same compound, the inhibition (Mus musculus [13]) was “inactive”, the inhibition (Mus musculus [14]) was “inactive” and the inhibition (Mus musculus [15]) was “inactive”. The inhibition (Mus musculus [16]) was “Active”, the inhibition (Mus musculus [17]) was “inactive” and the inhibition (Mus musculus [18]) was “inactive”. The inhibition (Mus musculus [19]) was “inactive” and the inhibition (Mus musculus [20]) was “inactive”.
With `COc1ccc2c3c1O[C@@H]1C(=O)CC[C@@H]4[C@H](C2)N(C)CC[C@@]314` the IC50 (Toll-like receptor 4) was over 200 µM.
`CN1CC[C@@]23c4c5ccc(O)c4O[C@@H]2C(=O)CC[C@]3(O)[C@@H]1C5` was tested, and the Activity [1] was “inactive”, the Activity [2] was “inactive” and the Activity [3] was “inactive”. The Activity [4] was “inactive”, the Activity [5] was “inactive” and the IC50 (Toll-like receptor 4) was 33.5 µM. For the same compound, the Activity [6] was “inactive”, the Activity [7] was “inactive” and the Activity [8] was “inactive”. The Activity [9] was “inactive”.
For `COC1=CC=C2[C@@H]3Cc4ccc(OC)c5c4[C@]2(CCN3C)[C@@H]1O5`, the IC50 (Toll-like receptor 4) was 197 µM.
Work on `COc1ccc2c(c1O)[C@@]13CCN(C)[C@@H](C2)[C@H]1CC(OC)C(=O)C3` (some centres not stated) yielded an IC50 (Toll-like receptor 4) of over 200 µM.

From ChEMBL document CHEMBL5528044, “Exploring the Function of (+)-Naltrexone Precursors: Their Activity as TLR4 Antagonists and Potential in Treating Morphine Addiction” (J Med Chem, 2024)
